Assay results from patent publication US20170008888A1 (KYORIN PHARMACEUTICAL CO., LTD., priority 2014, published 2017).
Where two headings read alike, the source gives them in different places.

System: human Th17 cells
Assay: Cytokine response by in vitro-polarized human Th17 cells stimulated with PMA/ionomycin
Type: cell-based
Conditions: 10 μM compound, PMA/ionomycin 20 h
Method: In vitro differentiation of human Th17 cells: Human CD4+ T cells (isolated as described in protocol A) were polarized into Th17 cells as follows: Tissue culture-treated 100 mm plates (Corning, Corning, N.Y.) were coated with 10 μg/ml anti-human CD3 clone OKT3 antibody overnight at 4° C. Polarization was initiated by seeding approximately 2-3 e7 human CD4+ T cells onto the anti-CD3 plates in Polarization media consisting of: RPMI 1640 medium (Lonza, Allendale, N.J.) supplemented with 10% (v/v) charcoal-dextran treated, heat inactivated FBS (Omega Scientific, Tarzana, Calif.), 0.05 mM 2-Mercaptoethanol (Sigma-Aldrich, St. Louis, Mo.), and 1×Pen/Strep Amphotericin B (Lonza), with added recombinant human IL-23 (40 ng/ml) and anti-CD28 clone CD28.2 antibody (2 μg/ml); all recombinant human cytokines and anti-human neutralizing antibodies were purchased from eBioscience (San Diego, Calif.). Cells were incubated in the above Polarization media for 3 days at 37° C. in a humidified atmosphere at 5% CO2. After 3 days, the Polarization media was replaced with Maintenance media, consisting of RPMI 1640/FBS/2-Mercaptoethanol/Pen/Strep Amphotericin B supplemented with recombinant human IL-23 (40 ng/ml) alone, and the cells were re-plated onto regular tissue-culture-treated plates (not anti-CD3 coated). Cells were incubated in the Maintenance media for an additional 3 days at 37° C. in a humidified atmosphere at 5% CO2.
Inhibition of PMA/ionomycin-stimulated cytokine response by in vitro-differentiated human Th17 cells: Human Th17 cells, generated as described above, were seeded at 2e6 cells/ml in RPMI 1640 containing 10% (v/v) charcoal-dextran treated, heat inactivated FBS (Omega Scientific, Tarzana, Calif.), 0.05 mM 2-Mercaptoethanol (Sigma-Aldrich, St. Louis, Mo.), and 1×Pen/Strep Amphotericin B (Lonza, Allendale, N.J.). Cells were pre-treated with test compounds (10 μM) for 1 h at 37° C. in a humidified atmosphere at 5% CO2. Cells were then stimulated with 50 ng/ml phorbol 12-myristate 13-acetate (PMA) (Sigma-Aldrich, St. Louis, Mo.)+1 μg/ml ionomycin (Life Technologies, Grand Island, N.Y.) for 20 h at 37° C. in a humidified atmosphere at 5% CO2. Supernatant was collected and analyzed using Bio-Plex Pro Human Th17 Cytokine 15-Plex Panel (Bio-Rad Laboratories, Hercules, Calif.) as per manufacturer's protocols. Magnetic beads were read on the Bio-Plex MAGPIX multiplex reader instrument using the accompanying xPONENT 4.2 acquisition software (Bio-Rad Laboratories). Data were analyzed via the Bio-Plex Manager software v6.1 (Bio-Rad Laboratories). Cytokine secretion levels from Th17 cells treated with 0.1% DMSO+Stimulation were normalized to 100%.
IL-1β, IL-25, and IL-33 were below the limit of detection under conditions used. The concentrations of the observed analytes from top to bottom, as listed, are as follows: 8899, 567, 174, 99, 10380, 511, 239, 548, 81, 966, 504, and 76223 pg/ml.

[1] = read-out: Percent inhibition of IFNγ (relative to DMSO control)
[2] = read-out: Percent inhibition of IL-4 (relative to DMSO control)
[3] = read-out: Percent inhibition of IL-6 (relative to DMSO control)
[4] = read-out: Percent inhibition of IL-10 (relative to DMSO control)
[5] = read-out: Percent inhibition of IL-17A (relative to DMSO control)
[6] = read-out: Percent inhibition of IL-17F (relative to DMSO control)
[7] = read-out: Percent inhibition of IL-21 (relative to DMSO control)
[8] = read-out: Percent inhibition of IL-22 (relative to DMSO control)
[9] = read-out: Percent inhibition of IL-23 (relative to DMSO control)
[10] = read-out: Percent inhibition of IL-31 (relative to DMSO control)
[11] = read-out: Percent inhibition of TNFα (relative to DMSO control)
[12] = read-out: Percent inhibition of sCD40L (relative to DMSO control)

CCOc1cc(C(=O)N2CCC(N3CCCC3)CC2)ccc1Nc1cc2c(cn1)N(C)C(=O)c1ccccc1N2C [Compound 46, 3-(2-Ethoxy-4-(4-(pyrrolidin-1-yl)piperidine-1-carbonyl)phenylamino)-5,11-dimethyl-5H-benzo[e]pyrido[3,4-b][1,4]diazepin-10(11H)-one]
inhibition at 10 µM [1]: 11.9%
inhibition at 10 µM [2]: -2.8%
inhibition at 10 µM [3]: 90.6%
inhibition at 10 µM [4]: 79.7%
inhibition at 10 µM [5]: 56.6%
inhibition at 10 µM [6]: 81.8%
inhibition at 10 µM [7]: -6.1%
inhibition at 10 µM [8]: 74%
inhibition at 10 µM [9]: -58.8%
inhibition at 10 µM [10]: -3%
inhibition at 10 µM [11]: 22%
inhibition at 10 µM [12]: 36.3%

CCOc1cc(C(=O)NCC2CC2)ccc1Nc1cc2c(cn1)N(C)C(=O)c1ccccc1N2C [Compound 57]
inhibition at 10 µM [1]: 17.4%
inhibition at 10 µM [2]: -11.8%
inhibition at 10 µM [3]: 93.1%
inhibition at 10 µM [4]: 80%
inhibition at 10 µM [5]: 49.5%
inhibition at 10 µM [6]: 67.4%
inhibition at 10 µM [7]: 28.6%
inhibition at 10 µM [8]: 76.8%
inhibition at 10 µM [9]: 29.8%
inhibition at 10 µM [10]: 3%
inhibition at 10 µM [11]: 5.6%
inhibition at 10 µM [12]: 32.3%

CCOc1cc(C(=O)N2CCC(N3CCN(C)CC3)CC2)ccc1Nc1cc2c(cn1)N(C)C(=O)c1ccccc1N2C [Compound 61]
inhibition at 10 µM [1]: 7.6%
inhibition at 10 µM [2]: -19.5%
inhibition at 10 µM [3]: 91.4%
inhibition at 10 µM [4]: 78.6%
inhibition at 10 µM [5]: 37.5%
inhibition at 10 µM [6]: 80.9%
inhibition at 10 µM [7]: 22.4%
inhibition at 10 µM [8]: 65.8%
inhibition at 10 µM [9]: -2.8%
inhibition at 10 µM [10]: -1.1%
inhibition at 10 µM [11]: -6.3%
inhibition at 10 µM [12]: 19%

CCOc1cc(C(=O)N2CCNCC2)ccc1Nc1cc2c(cn1)N(C)C(=O)c1ccccc1N2C [Compound 62]
inhibition at 10 µM [1]: 11.7%
inhibition at 10 µM [2]: -17%
inhibition at 10 µM [3]: 87.8%
inhibition at 10 µM [4]: 80.3%
inhibition at 10 µM [5]: 27.7%
inhibition at 10 µM [6]: 60%
inhibition at 10 µM [7]: 2.5%
inhibition at 10 µM [8]: 66.2%
inhibition at 10 µM [9]: 15.8%
inhibition at 10 µM [10]: -1.4%
inhibition at 10 µM [11]: -10.4%
inhibition at 10 µM [12]: 31.9%

CCOc1cc(C(=O)N2CCC(N3CCN(C)CC3)CC2)ccc1Nc1cc2c(cn1)N(C)C(=O)c1occc1N2C [Compound 65]
inhibition at 10 µM [1]: -0.6%
inhibition at 10 µM [2]: 4.6%
inhibition at 10 µM [3]: 87.3%
inhibition at 10 µM [4]: 78.6%
inhibition at 10 µM [5]: 13.9%
inhibition at 10 µM [6]: 39.7%
inhibition at 10 µM [7]: 0.8%
inhibition at 10 µM [8]: 61.7%
inhibition at 10 µM [9]: -79.4%
inhibition at 10 µM [10]: -3.2%
inhibition at 10 µM [11]: 11.3%
inhibition at 10 µM [12]: 31.6%

CCOc1cc(C(=O)N2CC[C@@H](N(C)C)C2)ccc1Nc1cc2c(cn1)N(C)C(=O)c1ccccc1N2C [Compound 115]
inhibition at 10 µM [1]: 18.4%
inhibition at 10 µM [2]: 1.5%
inhibition at 10 µM [3]: 92.5%
inhibition at 10 µM [4]: 80.1%
inhibition at 10 µM [5]: 68.3%
inhibition at 10 µM [6]: 83.5%
inhibition at 10 µM [7]: -86.1%
inhibition at 10 µM [8]: 75.7%
inhibition at 10 µM [9]: -30.7%
inhibition at 10 µM [10]: 3.4%
inhibition at 10 µM [11]: 57.1%
inhibition at 10 µM [12]: 53.7%
